Among the data in patent US20080312192A1, “Diaryl Urea Derivatives in the Treatment of Protein Kinase Dependent Diseases” (priority 2003, published 2008) are IC50 values, retold here.

The IC50 is the point on the concentration scale where inhibition reaches its midpoint. Read a high IC50 as a need for much substance.

The structures appear in SMILES notation. Where a name gives a salt, the structure may show the parent alone.

The target of this assay is T1, Flt-3 (Homo sapiens, UniProt P36888).
T1 construct: amino acids 563-993 of the cytoplasmic kinase domain of human Flt-3; made in house; host or cells: Sf9 insect cells (baculovirus, vector pFbacG01)
T1 sequence (P36888 563-993): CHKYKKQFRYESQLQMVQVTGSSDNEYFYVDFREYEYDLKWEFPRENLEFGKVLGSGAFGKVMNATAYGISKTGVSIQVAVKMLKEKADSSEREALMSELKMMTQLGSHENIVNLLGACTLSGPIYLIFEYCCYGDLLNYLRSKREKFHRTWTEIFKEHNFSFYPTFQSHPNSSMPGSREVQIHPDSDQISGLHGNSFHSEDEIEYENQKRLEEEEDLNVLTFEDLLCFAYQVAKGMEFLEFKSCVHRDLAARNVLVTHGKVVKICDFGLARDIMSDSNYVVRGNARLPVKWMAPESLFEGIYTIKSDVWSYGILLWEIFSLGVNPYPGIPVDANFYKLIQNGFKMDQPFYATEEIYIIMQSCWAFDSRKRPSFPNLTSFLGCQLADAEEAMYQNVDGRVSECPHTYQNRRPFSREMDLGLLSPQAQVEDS
Briefly: Flt-3 kinase inhibition (GST-Flt-3, 33P incorporation into poly(Glu,Tyr)). The class given is biochemical. The protocol:
Flt-3 kinase inhibition is determined as follows: The baculovirus donor vector pFbacG01 (GIBCO) is used to generate a recombinant baculovirus expressing the amino acid region amino acids 563-993 of the cytoplasmic kinase domain of human Flt-3. The coding sequence for the cytoplasmic domain of Flt-3 is amplified by PCR from human c-DNA libraries (Clontech). The amplified DNA fragments and the pFbacG01 vector are made compatible for ligation by digestion with BamHI and HindIII. Ligation of these DNA fragments results in the baculovirus donor plasmid pFbacG01-Flt-3. The production of the viruses, the expression of proteins in Sf9 cells and the purification of the GST-fused proteins are performed as follows:
Production of virus: The baculovirus donor plasmid (pFbacG01-Flt-3) containing the Flt-3 kinase domain is transfected into the DH10Bac cell line (GIBCO) and the transfected cells are plated on selective agar plates. Colonies without insertion of the fusion sequence into the viral genome (carried by the bacteria) are blue. Single white colonies are picked and viral DNA (bacmid) is isolated from the bacteria by standard plasmid purification procedures. Sf9 or Sf21 cells (American Type Culture Collection) are then transfected in flasks with the viral DNA using Cellfectin reagent.
Protein expression in Sf9 cells: Virus containing media is collected from the transfected cell culture and used for infection to increase its titre. Virus containing media obtained after two rounds of infection is used for large-scale protein expression. For large-scale protein expression 100 cm^2 round tissue culture plates are seeded with 5×10^7 cells/plate and infected with 1 mL of virus-containing media (approx. 5 MOIs). After 3 days the cells are scraped off the plate and centrifuged at 500 rpm for 5 min. Cell pellets from 10-20, 100 cm^2 plates are resuspended in 50 mL of ice-cold lysis buffer (25 mM Tris-HCl, pH 7.5, 2 mM EDTA-1% NP-40. 1 mM DTT, 1 mM PMSF). The cells are stirred on ice for 15 min and then centrifuged at 5000 rpms for 20 min.
Purification of GST-tagged protein: The centrifuged cell lysate is loaded onto a 2 mL glutathione-sepharose column (Pharmacia) and washed three times with 10 mL of 25 mM Tris-HCl, pH 7.5, 2 mM EDTA, 1 mM DTT, 200 mM NaCl. The GST-tagged protein is then eluted by 10 applications (1 mL each) of 25 mM Tris-HCl, pH 7.5, 10 mM reduced-glutathione, 100 mM NaCl, 1 mM DTT, 10% Glycerol and stored at −70° C.
Measurement of enzyme activity: Tyrosine protein kinase assays with purified GST-Flt-3 protein are carried out in a final volume of 30 μL containing 200-1800 ng of enzyme protein (depending on the specific activity), 20 mM Tris-HCl, pH 7.6, 3 mM MnCl2, 3 mM MgCl2, 1 mM DTT, 10 μM Na3VO4, 3 μg/mL poly(Glu, Tyr) 4:1, 1% DMSO, 8.0 μM ATP and 0.1 μCi [γ^33 P] ATP. The activity is assayed in the presence or absence of inhibitors, by measuring the incorporation of ^33P from [γ^33P] ATP into the poly(Glu,Tyr) substrate. The assay (30 μL) is carried out in 96-well plates at ambient temperature for 20 min and terminated by the addition of 20 μL of 125 mM EDTA. Subsequently, 40 μL of the reaction mixture is transferred onto Immobilon-PVDF membrane (Millipore, Bedford, Mass., USA) previously soaked for 5 min with methanol, rinsed with water, then soaked for 5 min with 0.5% H3PO4 and mounted on vacuum manifold with disconnected vacuum source. After spotting all samples, vacuum is connected and each well rinsed with 200 μL 0.5% H3PO4. Membranes are removed and washed 4× on a shaker with 1.0% H3PO4, once with ethanol. Membranes are counted after drying at ambient temperature, mounting in Packard TopCount 96-well frame, and addition of 10 μL/well of Microscint™ (Packard). IC50 values are calculated by linear regression analysis of the percentage inhibition of each compound in duplicate, at four concentrations (usually 0.01, 0.1, 1 and 10 μM). One unit of protein kinase activity is defined as 1 nmole of ^33P transferred from [γ3P] […]
`O=C(Nc1ccc(Oc2cc(Cl)ncn2)cc1)Nc1cc(CN2CCC2)cc(C(F)(F)F)c1` [Example 1, N-[4-(6-Chloro-pyrimidin-4-yloxy)-phenyl]-N′-[3-(azetidin-1-ylmethyl)-5-trifluoromethyl-phenyl]-urea]: the IC50 is 0.905 µM.
The same measure for `CNc1cc(Oc2ccc(NC(=O)Nc3cc(CN4CCC4)cc(C(F)(F)F)c3)cc2)ncn1` [Example 2, N-[4-(6-Methylamino-pyrimidin-4-yloxy)-phenyl]-N′-(3-azetidin-1-ylmethyl-5-trifluoromethyl-phenyl)-urea]: 1.2 µM; for `CC(C)N1CCN(Cc2cc(NC(=O)Nc3ccc(Oc4cc(N)ncn4)cc3)cc(C(F)(F)F)c2)CC1` [Example 8, N-[4-(6-Amino-pyrimidin-4-yloxy)-phenyl]-N′-[3-(4-isopropylpiperazin-1-ylmethyl)-5-trifluoromethyl-phenyl]-urea]: 0.51 µM; for `CN1CCN(Cc2ccc(NC(=O)Nc3ccc(Oc4cc(Cl)ncn4)cc3)cc2C(F)(F)F)CC1` [Example 14, N-[4-(6-Chloro-pyrimidin-4-yloxy)-phenyl]-N′-[4-(4-methylpiperazin-1-ylmethyl)-3-trifluoromethyl-phenyl]-urea]: 0.36 µM.
The same measure for `CC(C)N1CCN(Cc2ccc(NC(=O)Nc3ccc(Oc4cc(Cl)ncn4)cc3)cc2C(F)(F)F)CC1` [Example 15, N-[4-(6-Chloro-pyrimidin-4-yloxy)-phenyl]-N′-[4-(4-isopropylpiperazin-1-ylmethyl)-3-trifluoromethyl-phenyl]-urea]: 0.6 µM; for `CNc1cc(Oc2ccc(NC(=O)Nc3ccc(CN4CCN(C(C)C)CC4)c(C(F)(F)F)c3)cc2)ncn1` [Example 16, N-[4-(6-Methylamino-pyrimidin-4-yloxy)-phenyl]-N′-[4-(4-isopropylpiperazin-1-ylmethyl)-3-trifluoromethyl-phenyl]-urea trifluoroacetate]: 0.36 µM; for `CNc1cc(Oc2ccc(NC(=O)Nc3ccc(CN4CC[N+]([O-])(C(C)C)CC4)c(C(F)(F)F)c3)cc2)ncn1` [Example 17, N-[4-(6-Methylamino-pyrimidin-4-yloxy)-phenyl]-N′-[4-(4-isopropyl-4-oxy-piperazin-1-ylmethyl)-3-trifluoromethyl-phenyl]-urea trifluoroacetate]: 0.94 µM.
The same measure for `CN(Cc1ccc(NC(=O)Nc2ccc(Oc3cc(Cl)ncn3)cc2)cc1C(F)(F)F)C(C)(C)C` [Example 21, N-[4-(6-Chloro-pyrimidin-4-yloxy)-phenyl]-N′-[4-(methyl-^tertbutyl-amino-methyl)-3-trifluoromethyl-phenyl]-urea]: 1.8 µM.
As for `CNc1cc(Oc2ccc(NC(=O)Nc3ccc(CN(C)C(C)(C)C)c(C(F)(F)F)c3)cc2)ncn1` [Example 34a.1], the IC50 stood at 1.1 µM.
The same measure for `CN(Cc1ccc(NC(=O)Nc2ccc(Oc3cc(N)ncn3)cc2)cc1C(F)(F)F)C(C)(C)C` [Example 34a.3]: 0.83 µM; for `CNc1cc(Oc2ccc(NC(=O)Nc3ccc(CN4CCC4)c(C(F)(F)F)c3)cc2)ncn1` [Example 34b.1]: 0.36 µM; for `Nc1cc(Oc2ccc(NC(=O)Nc3ccc(CN4CCC4)c(C(F)(F)F)c3)cc2)ncn1` [Example 34b.3]: 0.37 µM.
Consider `CNc1cc(Oc2ccc(NC(=O)Nc3ccc(CN4CCN(C(C)(C)C)CC4)c(C(F)(F)F)c3)cc2)ncn1` [Example 34c.1], for which it took 0.54 µM to reach half-maximal inhibition (IC50).
The same measure for `CC(C)(C)N1CCN(Cc2ccc(NC(=O)Nc3ccc(Oc4cc(N)ncn4)cc3)cc2C(F)(F)F)CC1` [Example 34c.3]: 0.35 µM; for `CNc1cc(Oc2ccc(NC(=O)Nc3ccc(Cn4cnc(C)c4C)c(C(F)(F)F)c3)cc2)ncn1` [Example 34d.1]: 0.67 µM; for `Cc1ncn(Cc2ccc(NC(=O)Nc3ccc(Oc4cc(N)ncn4)cc3)cc2C(F)(F)F)c1C` [Example 34d.3]: 0.29 µM.
The same measure for `CNc1cc(Oc2ccc(NC(=O)Nc3ccc(Cn4ccnc4C)c(C(F)(F)F)c3)cc2)ncn1` [Example 34e.1]: 0.16 µM; for `Cc1nccn1Cc1ccc(NC(=O)Nc2ccc(Oc3cc(N)ncn3)cc2)cc1C(F)(F)F` [Example 34e.3]: 0.079 µM.
`CCN1CCN(Cc2ccc(NC(=O)Nc3ccc(Oc4cc(NC)ncn4)cc3)cc2C)CC1` [Example 34g.1] returned a half-maximal inhibitory concentration (IC50) of 0.3 µM.
For `CCN1CCN(Cc2ccc(NC(=O)Nc3ccc(Oc4cc(N)ncn4)cc3)cc2C)CC1` [Example 34g.3] the value was 0.378 µM; for `CNc1cc(Oc2ccc(NC(=O)Nc3ccc(CN4CCCC4)c(C(F)(F)F)c3)cc2)ncn1` [Example 34j.1], 0.25 µM; for `Nc1cc(Oc2ccc(NC(=O)Nc3ccc(CN4CCCC4)c(C(F)(F)F)c3)cc2)ncn1` [Example 34j.3], 0.283 µM.
With `CNc1cc(Oc2ccc(NC(=O)Nc3ccc(CN4CCOCC4)c(C(F)(F)F)c3)cc2)ncn1` [Example 34k.1], half-maximal inhibition (IC50) was put at 0.13 µM.
The same measure for `Nc1cc(Oc2ccc(NC(=O)Nc3ccc(CN4CCOCC4)c(C(F)(F)F)c3)cc2)ncn1` [Example 34k.3]: 0.1 µM; for `CNc1cc(Oc2ccc(NC(=O)Nc3ccc(CN(C)C)c(C(F)(F)F)c3)cc2)ncn1` [Example 34l.1]: 0.62 µM; for `CCN(CC)Cc1ccc(NC(=O)Nc2ccc(Oc3cc(NC)ncn3)cc2)cc1C(F)(F)F` [Example 34m.1]: 0.4 µM.
As to `CCN(CC)Cc1ccc(NC(=O)Nc2ccc(Oc3cc(N)ncn3)cc2)cc1C(F)(F)F` [Example 34m.3], inhibition was half-maximal at 0.2 µM (IC50).
For `CN(C)CCCN(C)Cc1ccc(NC(=O)Nc2ccc(Oc3cc(N)ncn3)cc2)cc1C(F)(F)F` [Example 34n.3] the value was 0.2 µM; for `CNc1cc(Oc2ccc(NC(=O)Nc3ccc(CN4CCN(Cc5ccc(OC)cc5)CC4)c(C(F)(F)F)c3)cc2)ncn1` [Example 34p.1], 0.59 µM.
With `Nc1cc(Oc2ccc(NC(=O)Nc3ccc(N4CCC(N5CCCCC5)CC4)c(C(F)(F)F)c3)cc2)ncn1` [Example 34s.2], half-maximal inhibition (IC50) required 0.24 µM.
For `CC(C)(C)CN1CCN(Cc2ccc(NC(=O)Nc3ccc(Oc4cc(N)ncn4)cc3)cc2C(F)(F)F)CC1` [Example 34t.2] the value was 0.29 µM.
For `CC(C)(C)CN1CCN(c2ccc(NC(=O)Nc3ccc(Oc4cc(N)ncn4)cc3)cc2C(F)(F)F)CC1` [Example 34u.2] the value was 1.5 µM; for `NC(=O)c1cc(NC(=O)Nc2ccc(Oc3cc(N)ncn3)cc2)cc(C(F)(F)F)c1` [Example 38, 3-{3-[4-(6-Amino-pyrimidin-4-yloxy)-phenyl]-ureido}-5-trifluoromethyl-benzamide], 0.354 µM.
